Data published in patent US20050107611A1, “Pyrazolyl-substituted triazoloquinoxalines” (priority 2001, published 2005).
Where two headings read alike, the source gives them in different places.

Key:
A2A adenosine receptor [1] = biological target: T1, A2A adenosine receptor (Rattus norvegicus, UniProt P30543); details: Table 1, literature values; cited from earlier work
A1 adenosine receptor [2] = biological target: T2, A1 adenosine receptor (Rattus norvegicus, UniProt P25099); details: cited from earlier work
T2 sequence (P25099 1-326): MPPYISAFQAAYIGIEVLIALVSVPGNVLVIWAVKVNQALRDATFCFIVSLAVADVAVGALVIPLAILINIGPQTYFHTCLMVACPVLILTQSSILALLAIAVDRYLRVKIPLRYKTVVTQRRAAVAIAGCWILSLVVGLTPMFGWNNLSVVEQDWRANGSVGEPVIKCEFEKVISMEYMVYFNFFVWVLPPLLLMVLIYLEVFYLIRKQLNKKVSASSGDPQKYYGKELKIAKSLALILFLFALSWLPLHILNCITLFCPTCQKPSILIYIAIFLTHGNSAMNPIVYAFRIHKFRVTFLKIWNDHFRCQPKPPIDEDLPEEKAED

A2A adenosine receptor [3] = biological target: T1, A2A adenosine receptor; test: Receptor binding assay with [3H]MSX-2 on A2A-adenosine receptors; parameters: tissue Pel Freez Company (Rogers, Ark., USA); host or cells: rat brain striatum membranes; details: for Ki: Table 2, [3H]MSX-2, read-out: A2A K1
Excerpt: (§1) The data of the biological tests that are cited below results from radioligand-binding assays on A1, A2A, A2B and A3 adenosine receptors (ARs).
(§2) The following selective radioligands are used in the biological tests: • [^3H]CCPA (for A1 ARs) [Klotz et al., Naunyn-Schmiedeberg's Arch. Pharmacol., 340, 679 (1989)] • [^3]MSX-2 (for A2A ARs) [Muiller et al., Eur. J. Pharm. Sci., 10, 259 (2000)] • [^3H]ZM241385 (for A2B ARs_[X.-D. Ji, K. A. Jacobson, Drug Des. Discov., 16, 217 (1999)] • [^3H]PSB-11 (new antagonistic radioligand for human A3 ARs) [M. Dieckmann, M. Thorand, V. Ozola, C. E. Muiller, in Vorbereitung [Preparation] (2001)]. • [^125I]AB-MECA (for rat-A3 ARs) [Olah et al., Mol. Pharmacol., 45, 978 (1994)]. Description of the Assays That are Used for Testing Substances Production of Tissue Preparations Made from Rat Brains
(§3) The cell decomposing of the cerebral cortex is carried out with a glass-Teflon homogenizer (stages 5-6, 10 seconds) in 0.32 M saccharose solution. The membranes are purified over various centrifuging steps. With centrifuging at 600 g, 4° C., for 10 minutes, a large amount of cell debris is separated via the P1 fraction, and the supernatant (P2 fraction) is further worked up: in the subsequent three centrifuging steps (35,000 g; 4° C.; 60 minutes), a pellet is produced that is resuspended in 50 mmol of TRIS buffer, pH 7.4 with the Ultraturrax (stages 3-4, 3 seconds); the respective supernatant is discarded. The striata are added to cold TRIS buffer, homogenized with the Ultraturrax in stages 3 to 4-(3 seconds) and then centrifuged at 35,000 g, 4° C., for 20 minutes. The supernatant is discarded, and the pellet is resuspended in 50 mmol of TRIS buffer (50 mmol, pH 7.4). The washing process is repeated twice more. The membrane preparations are stored at −80° C. and are held for several months. The cerebral cortex membrane preparation is used for A1-radioligand binding studies, and the striatum is used for A2A-radiologiand binding studies.
(§4) The test substances are dissolved in DMSO to 10 mmol. The final concentration of DMSO in the assay is 2.5% for A1- and A2A-adenosine receptor assays and 1-2% for A2B- and A3-assays. Dilution series of the test substances are produced from the stock solution. Five to eight different test concentrations, which comprise 3 orders of magnitude (e.g., 1 nm to 1000 nm), are used.
Receptor Binding Assay with [^3H]MSX-2 on A2A-Adenosine Receptors:
• 25 μl of DMSO, NECA (800 μmol) or test substance dilutions • 775 μl of TRIS buffer (for production, see above) • 100 μl of [^3H]MSX-2 (final concentration 1 nmol; KD value 8 nmol) • 100 μl of rat-striatum-membrane preparation or preparation of CHO cells, which express the human A2A receptor, incubated with 0.12 IE adenosine-deaminase (protein concentration: 25-75 μg/ml) • 1000 μl of final volume
The assay is performed according to the instructions of the receptor-binding assay with [^3H]CCPA with consideration of the amounts and solutions that are listed above. The incubation time is 30 minutes at 23° C. in an oscillating water bath. The glass fiber filter is introduced 30 minutes before use in 0.5% PEI solution.
(§5) The mean value is calculated from three independent experiments. IC50 and K, values are obtained from the Cheng-Prusoff equation, the concentration and the KD value of the radioligand. For calculation, the program GraphPadPrism™, Version 3.0 (GraphPad, San Diego, Calif., USA), was used.

A1 adenosine receptor [4] = biological target: T2, A1 adenosine receptor; test: Radioligand binding with [3H]CCPA on A1-adenosine receptors, rat brain cortex membranes; parameters: tissue Pel Freez Company (Rogers, Ark., USA); host or cells: rat brain cerebral cortex membranes; details: Table 2; [3H]CCPA; read-out: A1 K1
Excerpt: as §1, §2
For the preparations, deep-frozen rat brains of the Pel Freez Company (Rogers, Ark., USA) are used. The rat brains are thawed in 0.32 M saccharose solution, the cortex is cut off, and the striata are prepared outside.
as §3, §4
Radioligand Binding Studies with [^3H]CCPA on A1-Adenosine Receptors:
The mixture is incubated for 90 minutes in an oscillating water bath at 23° C. Then, it is filtered off with a Brandel cell-harvester and washed twice more with ice-cooled TRIS buffer, 50 mmol, pH 7.4 (3 ml). The filter plates are conveyed in scintillation vials, doused with 2.5 ml of Ultima Gold Scintillation cocktail and incubated for at least 6 hours before they are measured in a scintillation counter.
as §5

adenosine receptors = details: in words; development for ischemic stroke halted; cited from earlier work
[5] = in words; cited from earlier work
[6] = in words; cited from earlier work; remark: listed apart in the source
A2A-receptors = details: read-out: KiA2A; cited from earlier work
[7] = Table 1, literature values, read-out: A1 K1

T1 sequence (P30543 whole entry): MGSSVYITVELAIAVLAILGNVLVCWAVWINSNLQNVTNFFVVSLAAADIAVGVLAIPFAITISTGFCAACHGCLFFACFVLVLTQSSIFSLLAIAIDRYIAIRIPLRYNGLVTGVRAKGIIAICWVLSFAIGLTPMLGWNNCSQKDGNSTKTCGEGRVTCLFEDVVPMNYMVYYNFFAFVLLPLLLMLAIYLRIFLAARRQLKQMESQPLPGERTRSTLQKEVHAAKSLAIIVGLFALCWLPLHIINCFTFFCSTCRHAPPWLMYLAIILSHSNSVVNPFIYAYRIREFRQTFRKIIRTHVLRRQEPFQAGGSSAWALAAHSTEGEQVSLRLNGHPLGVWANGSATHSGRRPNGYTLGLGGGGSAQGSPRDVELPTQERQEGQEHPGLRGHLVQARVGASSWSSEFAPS

Ki (A2A adenosine receptor [3])	Ki (A1 adenosine receptor [4])	SMILES	A2A % Inhibition @ 25 μmol (A2A adenosine receptor [1])	Ki (A1 adenosine receptor [2]; [7])	also measured
–	–	Clc1cc(-c2nc3ccccc3n3c(-c4ccco4)nnc23)[nH]n1 [R = 2-Furyl]	(31% ± 3%)	410 ± 160 nM	–
1180 nM	100 nM	CC(Oc1ccccc1)c1nnc2c(-c3cc(Cl)[nH]n3)nc3ccccc3n12 (stereo not drawn) [Y = C—CH—(CH3)—O-Ph, R5 = H, R6 = Cl]	–	–	–
–	–	Nc1nc2ccc(Cl)cc2c2nc(-c3ccco3)nn12 [CGS-15943, 9-Chloro-2-(2-furanyl)-[1,2,4]triazolo[1,5-c]quinazoline-5-amine]	–	–	selectivity (adenosine receptors): inadequate selectivity
–	–	Clc1cc(-c2nc3ccccc3n3c(-c4cccs4)nnc23)[nH]n1 [R = 2-Thienyl]	(22% ± 13%)	710 ± 60 nM	–
–	–	Clc1cc(-c2nc3ccccc3n3c(Cc4cccs4)nnc23)[nH]n1 [R = 2-Thienylmethyl]	(21% ± 10%)	–	Ki (A1 adenosine receptor [2]; read-out: KiA1): 200 nM
–	–	Nc1nc2c(cnn2CCc2ccccc2)c2nc(-c3ccco3)nn12 [Sch-52861, 2-(2-Furanyl)-7-(2-phenylethyl)-7H-pyrazolo[4,3-e][1,2,4]triazolo[1,5-c]pyrimidine-5-amine]	–	–	solubility [5]: inadequate solubility; oral bioavailability [6]: poor oral bioavailability; Ki (A2A-receptors): 2.3 nM
–	–	Clc1cc(-c2nc3ccccc3n3c(Cc4ccccc4)nnc23)[nH]n1 [R =—CH2C6H5]	(6.1% ± 1.5%)	310 ± 90 nM	–
4100 nM	330 nM	Clc1cc(-c2nc3ccccc3n3c(-c4ccsc4)nnc23)n[nH]1 [Y = C-(3-Thienyl), R5 = H, R6 = Cl]	–	–	–
–	–	Clc1cc(-c2nc3ccccc3n3c(-c4ccccc4)nnc23)[nH]n1 [R = —C6H5]	(0%)	1620 ± 680 nM	–
> 10000 nM	620 nM	Clc1cc(-c2nc3ccccc3n3c(COCc4ccccc4)nnc23)n[nH]1 [Y = C—CH2—O—CH2-Ph, R5 = H, R6 = Cl]	–	–	A2A % inhib. @ 10 μmol (A2A adenosine receptor [3]; 10 μmol): (3%)
